Laboratory results from article PMC5218480 (PLoS ONE, 2017).

System: MV-4-11 cells
Assay: Gene expression microarray analysis (Affymetrix PrimeView) and GSEA
Format: cell-based, human
Parameters: RFU PODN (11730768_x_at) / Fold change /veh PODN (11730768_x_at) / RFU LINC00158 (11744669_a_at) / Fold change /veh LINC00158 (11744669_a_at) / RFU DUSP10 (11751237_a_at) / Fold change /veh DUSP10 (11751237_a_at) / RFU ID3 (11757404_x_at) / Fold change /veh ID3 (11757404_x_at) / RFU PLEKHG5 (11737974_s_at) / Fold change /veh PLEKHG5 (11737974_s_at) / RFU LRRC4B (11730491_at) / Fold change /veh LRRC4B (11730491_at) / RFU GIMAP4 (11747438_a_at) / Fold change /veh GIMAP4 (11747438_a_at) / RFU KRT8 (11758183_x_at) / Fold change /veh KRT8 (11758183_x_at) / RFU CNN1 (11734310_a_at) / Fold change /veh CNN1 (11734310_a_at) / RFU VPS37D (11726825_at) / Fold change /veh VPS37D (11726825_at) / RFU C10orf10 (11716522_x_at) / Fold change /veh C10orf10 (11716522_x_at) / RFU KIR2DL2 /// KIR2DL4 /// KIR2DL5A /// KIR2DL5B /// KIR2DS1 /// KIR2DS2 /// KIR2DS3 /// KIR2DS4 /// KIR3DL3 /// KIR3DL3 /// KIR3DS1 (11738374_at) / Fold change /veh KIR2DL2 /// KIR2DL4 /// KIR2DL5A /// KIR2DL5B /// KIR2DS1 /// KIR2DS2 /// KIR2DS3 /// KIR2DS4 /// KIR3DL3 /// KIR3DL3 /// KIR3DS1 (11738374_at) / RFU C1QL1 (11718748_at) / Fold change /veh C1QL1 (11718748_at) / RFU TMPRSS4 (11747572_a_at) / Fold change /veh TMPRSS4 (11747572_a_at) / RFU HAMP (11756126_x_at) / Fold change /veh HAMP (11756126_x_at) / RFU RNFT2 (11725882_a_at) / Fold change /veh RNFT2 (11725882_a_at) / RFU NR4A2 (11747474_a_at) / Fold change /veh NR4A2 (11747474_a_at) / RFU ABCC12 (11746883_a_at) / Fold change /veh ABCC12 (11746883_a_at) / RFU TMEM136 (11760407_x_at) / Fold change /veh TMEM136 (11760407_x_at) / RFU CLDN22 /// WWC2 (11732394_at) / Fold change /veh CLDN22 /// WWC2 (11732394_at) / RFU HLA-DPB1 (11760878_x_at) / Fold change /veh HLA-DPB1 (11760878_x_at) / RFU SPINT1 (11716480_a_at) / Fold change /veh SPINT1 (11716480_a_at) / RFU GAP43 (11754022_s_at) / Fold change /veh GAP43 (11754022_s_at) / RFU A4GNT (11735810_at) / Fold change /veh A4GNT (11735810_at) / RFU PRB3 (11715151_x_at) / Fold change /veh PRB3 (11715151_x_at) / RFU TUBB4B (11761932_at) / Fold change /veh TUBB4B (11761932_at) / RFU CAPN14 (11732068_a_at) / Fold change /veh CAPN14 (11732068_a_at) / RFU TMCC2 (11721928_a_at) / Fold change /veh TMCC2 (11721928_a_at) / RFU IRGQ (11745062_a_at) / Fold change /veh IRGQ (11745062_a_at) / RFU FAM174B (11720279_a_at) / Fold change /veh FAM174B (11720279_a_at) / RFU TMPRSS4 (11748680_a_at) / Fold change /veh TMPRSS4 (11748680_a_at) / RFU FAM212B (11763350_a_at) / Fold change /veh FAM212B (11763350_a_at) / RFU PLEKHG5 (11743358_a_at) / Fold change /veh PLEKHG5 (11743358_a_at) / RFU ZSCAN30 (11745921_a_at) / Fold change /veh ZSCAN30 (11745921_a_at) / RFU CMKLR1 (11741424_a_at) / Fold change /veh CMKLR1 (11741424_a_at) / RFU LOC101060620 /// MAPK8IP1 (11723275_at) / Fold change /veh LOC101060620 /// MAPK8IP1 (11723275_at) / RFU SPTSSB (11747773_x_at) / Fold change /veh SPTSSB (11747773_x_at) / RFU PRSS12 (11739890_at) / Fold change /veh PRSS12 (11739890_at) / RFU BIN1 (11741810_x_at) / Fold change /veh BIN1 (11741810_x_at) / RFU WNT11 (11732464_a_at) / Fold change /veh WNT11 (11732464_a_at) / RFU C10orf10 (11716521_a_at) / Fold change /veh C10orf10 (11716521_a_at) / RFU C5orf56 (11738089_at) / Fold change /veh C5orf56 (11738089_at) / RFU CYB561 (11721691_x_at) / Fold change /veh CYB561 (11721691_x_at) / RFU ANKRD19P (11752326_a_at) / Fold change /veh ANKRD19P (11752326_a_at) / RFU OR2T12 /// OR2T33 /// OR2T8 (11738714_s_at) / Fold change /veh OR2T12 /// OR2T33 /// OR2T8 (11738714_s_at) / RFU VCAN (11748164_a_at) / Fold change /veh VCAN (11748164_a_at) / RFU JSRP1 (11732532_at) / Fold change /veh JSRP1 (11732532_at) / RFU KRTAP10-11 (11738290_x_at) / Fold change /veh KRTAP10-11 (11738290_x_at) / RFU MYO3A (11730013_a_at) / Fold change /veh MYO3A (11730013_a_at) / RFU EBF3 (11725865_a_at) / Fold change /veh EBF3 (11725865_a_at) / RFU CAMK2N1 (11719241_x_at) / Fold change /veh CAMK2N1 (11719241_x_at) / RFU C5orf56 (11738088_a_at) / Fold change /veh C5orf56 (11738088_a_at) / RFU OLFML3 (11715873_a_at) / Fold change /veh OLFML3 (11715873_a_at) / RFU LOC100653217 /// NTM (11731650_a_at) / Fold change /veh LOC100653217 /// NTM (11731650_a_at) / RFU MAPK11 (11762145_a_at) / Fold change /veh MAPK11 (11762145_a_at) / RFU FIZ1 (11724087_x_at) / Fold change /veh FIZ1 (11724087_x_at) / RFU OASL (11726364_x_at) / Fold change /veh OASL (11726364_x_at) / RFU SOX15 (11748057_x_at) / Fold change /veh SOX15 (11748057_x_at) / RFU CD79A (11719716_a_at) / Fold change /veh CD79A (11719716_a_at) / RFU HIST1H1D (11736915_at) / Fold change /veh HIST1H1D (11736915_at) / RFU CASKIN2 (11723855_a_at) / Fold change /veh CASKIN2 (11723855_a_at) / RFU LOC730098 (11760151_x_at) / Fold change /veh LOC730098 (11760151_x_at) / RFU OR4N2 (11742367_at) / Fold change /veh OR4N2 (11742367_at) / RFU PRRT2 (11749266_a_at) / Fold change /veh PRRT2 (11749266_a_at) / RFU SNX32 (11753110_a_at) / Fold change /veh SNX32 (11753110_a_at) / RFU CDHR5 (11726645_a_at) / Fold change /veh CDHR5 (11726645_a_at) / RFU RCAN1 (11760418_a_at) / Fold change /veh RCAN1 (11760418_a_at) / RFU FAM167A (11723789_a_at) / Fold change /veh FAM167A (11723789_a_at) / RFU FAM26E (11764081_at) / Fold change /veh FAM26E (11764081_at) / RFU ISYNA1 (11749810_s_at) / Fold change /veh ISYNA1 (11749810_s_at) / RFU ACY1 (11761880_at) / Fold change /veh ACY1 (11761880_at) / RFU 11764098_at / Fold change /veh 11764098_at / RFU SAMD14 (11745864_x_at) / Fold change /veh SAMD14 (11745864_x_at) / RFU NPB (11741838_a_at) / Fold change /veh NPB (11741838_a_at) / RFU TMPRSS6 (11731388_a_at) / Fold change /veh TMPRSS6 (11731388_a_at) / RFU KRTAP10-2 (11738614_at) / Fold change /veh KRTAP10-2 (11738614_at) / RFU ARHGAP8 /// PRR5-ARHGAP8 (11727945_x_at) / Fold change /veh ARHGAP8 /// PRR5-ARHGAP8 (11727945_x_at) / RFU KRTAP5-7 /// NADSYN1 (11734609_at) / Fold change /veh KRTAP5-7 /// NADSYN1 (11734609_at) / RFU RASL12 (11751679_a_at) / Fold change /veh RASL12 (11751679_a_at) / RFU CDKN2B (11736163_a_at) / Fold change /veh CDKN2B (11736163_a_at) / RFU PRF1 (11729649_at) / Fold change /veh PRF1 (11729649_at) / RFU, ZNF638 /// ZNF638-IT1 / Fold change vs veh, ZNF638 /// ZNF638-IT1 / RFU, PANK3 / Fold change vs veh, PANK3 / RFU, SH3YL1 / Fold change vs veh, SH3YL1 / RFU, ZEB2 / Fold change vs veh, ZEB2 / RFU, NRIP1 / Fold change vs veh, NRIP1 / RFU, PTTG1IP / Fold change vs veh, PTTG1IP / RFU, CAPN2 / Fold change vs veh, CAPN2 / RFU, MED14 / Fold change vs veh, MED14 / RFU, SNORA58 / Fold change vs veh, SNORA58 / RFU, C1orf63 / Fold change vs veh, C1orf63 / RFU, LRRFIP1 / Fold change vs veh, LRRFIP1 / RFU, NDUFAF7 / Fold change vs veh, NDUFAF7 / RFU, SLC12A2 / Fold change vs veh, SLC12A2 / RFU, IBTK / Fold change vs veh, IBTK / RFU, ESF1 / Fold change vs veh, ESF1 / Fold change vs veh, TMEM50B / RFU, TAOK1 / Fold change vs veh, TAOK1 / RFU, ACBD3 / Fold change vs veh, ACBD3 / RFU, TMA16 / Fold change vs veh, TMA16 / RFU, RWDD3 / Fold change vs veh, RWDD3 / RFU, BCAT1 / Fold change vs veh, BCAT1 / RFU, EDEM3 / Fold change vs veh, EDEM3 / RFU, TMEM33 / Fold change vs veh, TMEM33 / RFU, WDR75 / Fold change vs veh, WDR75 / RFU, AHCTF1 / Fold change vs veh, AHCTF1 / RFU, TFRC / Fold change vs veh, TFRC / RFU, ZDHHC17 / Fold change vs veh, ZDHHC17 / RFU, NOM1 / Fold change vs veh, NOM1 / RFU, ARL8B / Fold change vs veh, ARL8B / RFU, ZBTB11 / Fold change vs veh, ZBTB11 / RFU, TAMM41 / Fold change vs veh, TAMM41 / RFU, KIAA1704 /// LOC100996395 / Fold change vs veh, KIAA1704 /// LOC100996395 / RFU, ING1 / Fold change vs veh, ING1 / RFU, TRMT61B / Fold change vs veh, TRMT61B / RFU, FUBP3 / Fold change vs veh, FUBP3 / RFU, TP53 / Fold change vs veh, TP53 / RFU, TNKS2 / Fold change vs veh, TNKS2 / RFU, ZFP14 / Fold change vs veh, ZFP14 / RFU, ACTR2 / Fold change vs veh, ACTR2 / RFU, PPP3R1 / Fold change vs veh, PPP3R1 / RFU, PIK3R1 / Fold change vs veh, PIK3R1 / RFU, HNRNPA1 / Fold change vs veh, HNRNPA1 / RFU, RNF170 / Fold change vs veh, RNF170 / RFU, ZNF28 / Fold change vs veh, ZNF28 / RFU, RNGTT / Fold change vs veh, RNGTT / RFU, OGT / Fold change vs veh, OGT / RFU, BRD1 / Fold change vs veh, BRD1 / RFU, MARS / Fold change vs veh, MARS / RFU, ZNF655 / Fold change vs veh, ZNF655 / RFU, FAHD1 / Fold change vs veh, FAHD1 / RFU, BDP1 / Fold change vs veh, BDP1 / RFU, LRRCC1 / Fold change vs veh, LRRCC1 / RFU, ARID1A / Fold change vs veh, ARID1A / RFU, ZNF146 / Fold change vs veh, ZNF146 / RFU, ZNF330 / Fold change vs veh, ZNF330 / RFU, GPN3 / Fold change vs veh, GPN3 / RFU, C9orf123 / Fold change vs veh, C9orf123 / RFU, N4BP2L2 / Fold change vs veh, N4BP2L2 / RFU, ARFIP1 / Fold change vs veh, ARFIP1 / RFU, FAM179B / Fold change vs veh, FAM179B / RFU, BCL10 / Fold change vs veh, BCL10 / RFU, UHRF1BP1L / Fold change vs veh, UHRF1BP1L / RFU, BET1 / Fold change vs veh, BET1 / RFU, CNOT2 / Fold change vs veh, CNOT2 / RFU, ZNF268 / Fold change vs veh, ZNF268 / Fold change vs veh, ZNF507 / RFU, DGCR2 / Fold change vs veh, DGCR2 / RFU, WDSUB1 / Fold change vs veh, WDSUB1 / Fold change vs veh, HSP90B1 /// MIR3652 / RFU, ADSS / Fold change vs veh, ADSS / RFU, GK / Fold change vs veh, GK / RFU, ZNF148 / Fold change vs veh, ZNF148 / RFU, TAF9 / Fold change vs veh, TAF9 / RFU, SLC1A5 / Fold change vs veh, SLC1A5 / RFU, SLMO2 / Fold change vs veh, SLMO2 / RFU, ABCC4 / Fold change vs veh, ABCC4 / RFU, LOC101060439 /// RAP1B / Fold change vs veh, LOC101060439 /// RAP1B / RFU, RFX7 / Fold change vs veh, RFX7 / RFU, GTPBP10 / Fold change vs veh, GTPBP10 / RFU, CNEP1R1 / Fold change vs veh, CNEP1R1 / RFU, BIVM-ERCC5 /// ERCC5 / Fold change vs veh, BIVM-ERCC5 /// ERCC5 / RFU, ILF3 / Fold change vs veh, ILF3 / RFU 11762660_at / Fold change /veh 11762660_at / RFU VCAN (11757783_s_at) / Fold change /veh VCAN (11757783_s_at) / RFU DDX43 (11728927_at) / Fold change /veh DDX43 (11728927_at) / RFU KRT8 (11758188_x_at) / Fold change /veh KRT8 (11758188_x_at) / RFU NKD1 (11759106_at) / Fold change /veh NKD1 (11759106_at) / RFU SRD5A1 (11742802_a_at) / Fold change /veh SRD5A1 (11742802_a_at) / RFU TPSAB1 /// TPSB2 (11721975_s_at) / Fold change /veh TPSAB1 /// TPSB2 (11721975_s_at) / RFU GSTM3 (11746129_a_at) / Fold change /veh GSTM3 (11746129_a_at) / RFU IL23R (11737362_x_at) / Fold change /veh IL23R (11737362_x_at) / RFU TMEM51 (11727254_a_at) / Fold change /veh TMEM51 (11727254_a_at) / RFU PIWIL2 (11732686_x_at) / Fold change /veh PIWIL2 (11732686_x_at) / RFU ORM1 (11744905_x_at) / Fold change /veh ORM1 (11744905_x_at) / RFU CCDC152 (11743942_at) / Fold change /veh CCDC152 (11743942_at) / RFU ECM1 (11717891_a_at) / Fold change /veh ECM1 (11717891_a_at) / RFU IL23R (11748794_a_at) / Fold change /veh IL23R (11748794_a_at) / RFU TNFAIP8L3 (11732012_x_at) / Fold change /veh TNFAIP8L3 (11732012_x_at) / RFU MBOAT4 (11741988_at) / Fold change /veh MBOAT4 (11741988_at) / RFU 11764193_at / Fold change /veh 11764193_at / RFU TMEM53 (11763286_at) / Fold change /veh TMEM53 (11763286_at) / RFU MAGEB2 (11727129_at) / Fold change /veh MAGEB2 (11727129_at) / RFU TMEM200A (11744735_a_at) / Fold change /veh TMEM200A (11744735_a_at) / RFU CCDC152 (11751479_a_at) / Fold change /veh CCDC152 (11751479_a_at) / RFU FAM211A (11726209_a_at) / Fold change /veh FAM211A (11726209_a_at) / RFU RGS16 (11746705_a_at) / Fold change /veh RGS16 (11746705_a_at) / RFU VCAN (11755009_s_at) / Fold change /veh VCAN (11755009_s_at) / RFU RHOB (11743442_s_at) / Fold change /veh RHOB (11743442_s_at) / RFU RGS16 (11720943_a_at) / Fold change /veh RGS16 (11720943_a_at) / RFU RGS16 (11720944_at) / Fold change /veh RGS16 (11720944_at) / RFU, VPS4B / Fold change vs veh, VPS4B / RFU, CREB1 / Fold change vs veh, CREB1 / RFU, DNAJC13 / Fold change vs veh, DNAJC13 / RFU, GNAQ / Fold change vs veh, GNAQ / RFU, CDK5R1 / Fold change vs veh, CDK5R1 / RFU, ZRANB3 / Fold change vs veh, ZRANB3 / RFU, CUL4A / Fold change vs veh, CUL4A / RFU, CCNY / Fold change vs veh, CCNY / RFU, UFL1 / Fold change vs veh, UFL1 / RFU, COG3 / Fold change vs veh, COG3 / RFU, DIAPH2 / Fold change vs veh, DIAPH2 / RFU, SKA2 / Fold change vs veh, SKA2 / RFU, AFF3 / Fold change vs veh, AFF3 / RFU, LMF1 / Fold change vs veh, LMF1 / RFU, IPO11 / Fold change vs veh, IPO11 / RFU, DFFB / Fold change vs veh, DFFB / RFU, FOXP1 / Fold change vs veh, FOXP1 / RFU, CARD8 / Fold change vs veh, CARD8 / RFU, STRN3 / Fold change vs veh, STRN3 / RFU, ADK / Fold change vs veh, ADK / RFU, RASSF2 / Fold change vs veh, RASSF2 / RFU, WIPF1 / Fold change vs veh, WIPF1 / RFU, LARP1B / Fold change vs veh, LARP1B / RFU, RASA1 / Fold change vs veh, RASA1 / RFU, RB1 / Fold change vs veh, RB1 / RFU, PPFIA1 / Fold change vs veh, PPFIA1 / RFU, MAT2A / Fold change vs veh, MAT2A / RFU, CCT5 / Fold change vs veh, CCT5 / RFU, WDR92 / Fold change vs veh, WDR92 / RFU, CUX1 / Fold change vs veh, CUX1 / RFU, TTC7A / Fold change vs veh, TTC7A / RFU, TMEM135 / Fold change vs veh, TMEM135 / RFU, DEPTOR / Fold change vs veh, DEPTOR / RFU, CPM / Fold change vs veh, CPM / RFU, DNAJB6 / Fold change vs veh, DNAJB6 / RFU, CACNA2D3 / Fold change vs veh, CACNA2D3 / RFU, DTX4 / Fold change vs veh, DTX4 / RFU, TFCP2 / Fold change vs veh, TFCP2 / RFU, GMCL1 /// GMCL1P1 / Fold change vs veh, GMCL1 /// GMCL1P1 / RFU, AEBP2 / Fold change vs veh, AEBP2 / RFU, SNHG1 /// SNORD22 /// SNORD25 /// SNORD26 /// SNORD27 /// SNORD28 /// SNORD29 /// SNORD31 / Fold change vs veh, SNHG1 /// SNORD22 /// SNORD25 /// SNORD26 /// SNORD27 /// SNORD28 /// SNORD29 /// SNORD31 / Fold change (Aza/veh), C12orf56 (ProbeSet 11735607_a_at) / Fold change (ACY-1035/veh), C12orf56 (ProbeSet 11735607_a_at) / Fold change (Aza/veh), FGFR1OP (ProbeSet 11751329_s_at) / Fold change (ACY-1035/veh), FGFR1OP (ProbeSet 11751329_s_at) / Fold change (Aza/veh), VPS36 (ProbeSet 11739960_a_at) / Fold change (ACY-1035/veh), VPS36 (ProbeSet 11739960_a_at) / RFU SYPL1 (11715823_x_at) / Fold change /veh SYPL1 (11715823_x_at) / RFU IGFBP7 (11715501_s_at) / Fold change /veh IGFBP7 (11715501_s_at) / RFU REEP3 (11722064_at) / Fold change /veh REEP3 (11722064_at) / RFU IGLL1 (11728026_x_at) / Fold change /veh IGLL1 (11728026_x_at): dose or concentration left out as unconfirmed
Settings: MV-4-11 cells, 48 hours

Nc1ncn([C@@H]2O[C@H](CO)[C@@H](O)[C@H]2O)c(=O)n1 [azacitidine]
RFU RGS16 (11720943_a_at): 102.77 RFU
